Test [1] is described as follows: OVX rat model: body weight. It counts as in vivo. As to conditions: OVX rats, oral gavage 28 days, vs vehicle-treated OVX; PF—X (di-hydrochloride salt) 10 or 30 mg/kg/d, EE 30 μg/kg/d.
Test [2] deals with ovariectomized (OVX) rat model. As to the kind of experiment: OVX rat model: serum osteocalcin by RIA. It counts as in vivo. To be noted: OVX rats, 2 weeks post-treatment, vs vehicle-treated OVX rats.
Test [3] has as its system ovariectomized (OVX) rat model. As to the kind of experiment: OVX rat model: pQCT analysis of distal femoral metaphysis. Format: in vivo. To be noted: OVX rats vs vehicle, PF—X 10 or 30 mg/kg/d, 28 days; for cortical bone content / total bone mineral content / total bone mineral density: EE 30 μg/kg/d.
In test [4] the test system is ovariectomized (OVX) rat model. Description: OVX rat model: trabecular bone histomorphometry of proximal tibial metaphysis. Format: in vivo. As to conditions: OVX rats vs vehicle, PF—X 30 mg/kg/d, 28 days; for bone formation rate/BV / bone formation rate/TV / mineral apposition rate / osteoclast number / osteoclast surface / percent mineralizing surface: EE 30 μg/kg/d.

Test [5] has as its system murine mesenchymal stem cells. Description: Alkaline phosphatase activity in murine MSC. Format: cell-based, mouse. As to conditions: murine MSCs, OS media, 1 μM dexamethasone or increasing doses of PF—Y; units per culture or per μg DNA (FIG. 2). How it is done: (§1) Quantitative Alkaline Phosphatase Measurement. For quantitative alkaline phosphatase measurements, cells were washed twice with Dulbecco's phosphate buffered saline (DPBS) followed by incubation with substrate buffer (50 mM glycine, 1 mM magnesium chloride, pH 10.5) containing 1.3 mg/ml p-nitrophenol phosphate. The levels of alkaline phosphatase activity were determined by measuring the absorbance at 405 nm and compared to p-nitrophenol standards. The level of alkaline phosphatase activity was corrected for the amount of DNA in each sample.
(§2) Murine mesenchymal stem cells isolated from femurs and tibiae of C57BI/6 mice were cultured in alpha-MEM containing 10% fetal bovine serum (FBS) and plated in six well dishes at a density of […]. The day after plating, the media were removed and replaced with media alone, in media with OS, or in OS media containing either 1 μM of dexamethasone or increasing doses of PF—Y for 21 days. “OS” medium” contains 50 μM ascorbic acid and 10 mM β-glycerophosphate. Media were refreshed every 3 days. The amount of alkaline phosphatase was measured on day 7 and day 21. The amounts of secreted calcium were determined only on day 21. The VonKossa stain was done after staining day 21 samples for alkaline phosphatase.

For test [6], the system named is murine mesenchymal stem cells. As to the kind of experiment: Calcium deposition in murine MSC. It counts as cell-based, mouse. To be noted: murine MSCs, OS media, day 21, 1 μM dexamethasone or increasing doses of PF—Y; μg per culture or per μg DNA (FIG. 3). How it is done: (§3) Calcium Assay. Calcium deposited by the cells was measured using a diagnostic kit (Sigma #587A). Briefly, cells were rinsed twice with DPBS and hydrolyzed in 0.5 N HCl rotating overnight at 4°. Cells were then scraped and cellular debris was pelleted. Supernatants were used to measure calcium levels following manufacturer's protocol. The absorbance at 570 nm was determined and compared to calcium standards. Calcium levels were corrected for the DNA content in each well.
as §2

Test [7] concerns human mesenchymal stem cells. As to the kind of experiment: Alkaline phosphatase activity in human MSC. Format: cell-based. As to conditions: human MSCs, OS media; units per μg DNA (FIG. 4). How it is done:
as §1
(§4) Human mesenchymal stem cells were cultured in DMEM-high glucose containing 10% FBS and 10 mM l-glutamine and plated in six well dishes at a density of 3×10^4 cells/well. The day after plating, these cultures were treated and analyzed as in Example 2.

The test system of test [8] is human mesenchymal stem cells. Description: Calcium deposition in human MSC. Format: cell-based. As to conditions: human MSCs, compared to OS media alone; PF—Y especially the two lower doses (FIG. 5). How it is done:
as §3, §4

Test [9] concerns murine MC3T3 cells. Description: Alkaline phosphatase activity in MC3T3 cells. To be noted: OS media with increasing doses of PF—Y, units per plate or per μg DNA (FIG. 6). Format: cell-based, mouse. How it is done:
as §1
MC3T3 cells were cultured in alpha-MEM media containing 10% FBS and plated in six well dishes at a density of 5×10^4 cells/well. The day after plating, the media were removed and OS media with increasing doses of PF—Y were added. Media were refreshed every 3 days. The amount of alkaline phosphatase was measured as in Example 2 and 3.

The target in test [10] is T1, PYK2 (Mus musculus, UniProt Q9QVP9).
T1 construct: endogenous in cells; host or cells: murine MC3T3 cells
T1 sequence (Q9QVP9 whole entry): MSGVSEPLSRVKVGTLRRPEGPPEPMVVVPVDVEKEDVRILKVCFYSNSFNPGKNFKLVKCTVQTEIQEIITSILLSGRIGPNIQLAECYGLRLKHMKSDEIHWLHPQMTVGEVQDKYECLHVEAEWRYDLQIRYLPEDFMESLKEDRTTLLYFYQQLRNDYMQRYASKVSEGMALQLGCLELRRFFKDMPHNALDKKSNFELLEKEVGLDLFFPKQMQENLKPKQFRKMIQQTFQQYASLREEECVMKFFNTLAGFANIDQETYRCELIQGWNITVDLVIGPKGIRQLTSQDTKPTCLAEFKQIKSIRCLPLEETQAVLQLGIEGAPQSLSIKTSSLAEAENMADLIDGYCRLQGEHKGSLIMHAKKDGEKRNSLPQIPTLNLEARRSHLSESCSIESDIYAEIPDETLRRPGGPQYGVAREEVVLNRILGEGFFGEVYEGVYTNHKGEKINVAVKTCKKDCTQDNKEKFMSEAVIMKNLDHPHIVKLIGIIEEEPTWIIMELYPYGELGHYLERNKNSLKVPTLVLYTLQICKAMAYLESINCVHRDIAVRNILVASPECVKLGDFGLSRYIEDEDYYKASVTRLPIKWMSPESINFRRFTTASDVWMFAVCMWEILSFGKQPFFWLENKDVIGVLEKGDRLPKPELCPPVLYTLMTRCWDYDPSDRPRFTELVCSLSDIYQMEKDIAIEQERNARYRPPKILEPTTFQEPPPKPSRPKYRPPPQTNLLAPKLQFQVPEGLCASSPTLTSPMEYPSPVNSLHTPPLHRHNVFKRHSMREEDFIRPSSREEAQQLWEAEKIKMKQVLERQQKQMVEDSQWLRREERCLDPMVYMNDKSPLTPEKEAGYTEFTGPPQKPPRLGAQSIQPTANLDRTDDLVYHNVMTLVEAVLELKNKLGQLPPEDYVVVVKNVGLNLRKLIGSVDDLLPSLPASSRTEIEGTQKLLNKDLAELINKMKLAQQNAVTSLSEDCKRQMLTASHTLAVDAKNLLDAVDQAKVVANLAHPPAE
As to the kind of experiment: AIF-stimulated phosphorylation of PYK2 tyrosine 402 in MC3T3 cells (immunoprecipitation, SDS-PAGE). Format: cell-based. To be noted: Aluminum fluorate (AIF), 3 mM PF—Y (FIG. 7). How it is done: Murine MC3T3 cells were treated with Aluminum fluorate (AIF) alone or in the presence of 3 mM PF—Y. Cells were lysed and the amount of total PYK2 and phosphorylated PYK2 (P-Y402) were determined by immunoprecipitation with antibodies that recognize total PYK2 or phosphorylated Tyr 402 PYK2 followed by SDS-PAGE.

SMILES strings stand for the structures. Entries after “also recorded” stand apart in the source; their conditions may differ.

On to `C#C[C@]1(O)CC[C@H]2[C@@H]3CCc4cc(O)ccc4[C@H]3CC[C@@]21C` [EE, 17[…]-ethynyl estradiol, reference compound], for which the body weight entry in test [1] is on record as “prevented OVX-induced weight gain”. Also, the Serum osteocalcin entry in [2] is recorded as “significantly decreased”. In test [3], the cortical bone content result is reported as “higher”, the “total bone mineral content” value is given as “higher” and the “total bone mineral density” value was “higher”. In test [4], the “bone formation rate/BV” value is “decreases”, the “bone formation rate/TV” value was “decreases”, the mineral apposition rate entry is reported as “decreases” and the osteoclast number entry is “decreases”. Moreover, in test [4], the osteoclast surface entry is recorded as “decreases” and the percent mineralizing surface entry is reported as “decreases”.

With `CN(c1ccccc1CNc1nc(Nc2ccc3c(c2)CC(=O)N3)ncc1C(F)(F)F)S(C)(=O)=O` [PF—X], the body weight result in test [1] is given as “No significant difference”. For the same molecule, the Serum osteocalcin result in test [2] was “significantly increased”. Besides, in test [3], the total bone area result is “significant increases”, the trabecular bone density entry is recorded as “significant increases”, the cortical bone content entry was “significant increases” and the “total bone mineral content” value is “significant increases”. In addition, the “total bone mineral density” value in [3] is reported as “significant increases”. Besides, in test [4], the trabecular bone volume entry is recorded as “significant increase”, the trabecular thickness entry was “significant increase”, the “bone formation rate/BV” value is listed as “significant increase” and the “bone formation rate/TV” value is “significant increase”. In test [4], the mineral apposition rate result is recorded as “significant increase”, the osteoclast number entry is given as “significant decrease”, the osteoclast surface entry is listed as “significant decrease” and the percent mineralizing surface entry is “significant increase”.

On to `Cc1cc(C)c(/C=C2\C(=O)Nc3ccc(O)cc32)[nH]1` [PF—Y], for which the alkaline phosphatase activity result in [5], in [7] and in [9] was “elevated” in each case. Also, the calcium deposition result in [6] and in [8] was “increased” each time. Further, in [10], the “AIF-induced phosphorylation of tyrosine 402 of PYK2” value is recorded as “inhibited; also recorded: inhibition”.

Values taken from patent US20090118316A1, “Methods for Augmenting Bone” (PFZER INC., priority 2004, published 2009).
